# Assay results: patent US20030186943A1, “Substituted gamma-phenyl-delta-lactams and uses related thereto” (Inflazyme Pharmaceuticals Ltd., priority 1998, published 2003)
# Read-outs that look alike come from different tables or passages of the source.
# Tests used:
# [1] = system: primary human neutrophils; assay: Generation of reactive oxygen species by fMLP-activated neutrophils (luminol-enhanced chemiluminescence); format: cell-based; conditions: Neutrophil
# Summary of the method: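 Fresh primary human neutrophils (5×10^6 cells/mL) preincubated 30 min at 37° C with compound in Ca^2+-containing HBSS pH 7.4, then stimulated with 1 μM fMLP in presence of 1 μM luminol. Chemiluminescence integrated over 30 min; IC50 from non-linear regression versus 0.25% DMSO control.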
# [2] = system: TNF-α production in concanavalin-A stimulated primary human CD4+ T-lymphocytes; assay: TNF-α production in Con-A stimulated human CD4+ T-cells (ELISA); format: cell-based; conditions: T-lymphocyte, X marks this range
# Procedure: Activated T-lymphocytes are known to produce TNF-α and may constitute a significant source of this important inflammatory mediator in localized regions of inflammation such as the rheumatoid synovium or psoriatic lesions. Supernatants from cona-stimulated primary human CD4+ T-cells that had been incubated in the presence or absence of a test compound were analyzed for TNF-α using an ELISA system. (Pharingen; recommended anti-TNF antibody set 18631-D and 18642-D). Substantial quantities of TNF-α were induced in vehicle treated T-cells stimulated with conA. […] This may be due to the differing sensitivity of monocyte/macrophages versus T-lymphocytes to elevations in intracellular cAMP with respect to regulatory pathways impacting TNF-α production.
# (§1) Approximately 60 cc of whole human blood was collected into ACD anti-coagulant vacutainer tubes. 15 mL Ficoll Paque 1077 was aliquoted into 6 sterile 50 mL conical tubes. 10 mL of blood was slowly layered on top of the Ficoll Paque by holding the tube upright and resting the pipette tip at the inside edge of the tube and allowing the blood to slowly run down the side of the tube. Tubes were spun at 1700 rpm for 30 minutes at room temperature. The plasma layer above the leukocyte band was aspirated off and a pasteur pipette was used to lift off the leukocyte band and transfer it to a sterile 50 mL conical tube. Cells from each leukocyte gradiant tube were transferred to a separate 50 mL conical tube. Sterile PBS pH 7.4 was added to each 50 mL conical tube containing cells from leukocyte band to a volume of 50 mL. Tubes were spun at 1100 rpm for 10 minutes. Supernatant was aspirated off and the cells were resuspended in 50 mL PBS pH 7.4. Tubes were re-centrifuged at 1100 rpm for 10 minutes. Supernatant was aspirated off and the cells were resuspended in appropriate medium at a density of 5×10^7 cells/mL or 2×10^6 cells/mL.
# (§2) CD 4+T-cell Preparation: Cells from Leukocyte preparation were resuspended in sterile PBS pH 7.4 supplemented with 2-6% Fetal Bovine Serum (FBS) at a density of 5×10^7 cells/mL. Cells were then ready for isolation.
# (§3) 100 μL of antibody cocktail (Stem Cell Technologies, Catalogue No. 14062) was added for each mL of cells and mixed well. Cells+Ab cocktail was incubated on ice for 30 minutes. After 30 minute incubation, 60 μL of magnetic colloid was added for each mL of cells, and mixed well. Cells+Ab cocktail+magnetic colloid were incubated on ice for 30 minutes. After a final 30 minute incubation cells were ready for magnetic cell separation.
# (§4) Sample was loaded into the top of a column. The stopcock was turned to allow the flow of media down through the column, and the media was collected into a collection tube. PBS supplemented with 2-6% FBS was added to the column until three column volumes had been collected (not including the volume of the start sample). Cells were washed, counted, and resuspended in RPMI 1640 with 10% FBS+2 mM L-glutamine at a density of 1×10^6 cells/mL.
# (§5) CD4+ T-cells were isolated as described above. Cells were suspended in RPMI 1640 media (Stem Cell Technologies Inc.; Catalogue No. 36750) with 10% FBS+2 mM L-glutamine at a density of 1×10^6 cells/mL. Cells were maintained on ice as test compounds were prepared. Test compounds were prepared in a sterile 96-well assay plate at 50×the final desired test concentration, all wells contained an equal amount of dimethylsulfoxide vehicle. 500 μL of CD4^+ T-cells were added to each well of 24-well assay plate. 10 μL of each test compound working solution was added to the appropriate wells; two wells were left as stimulated and non-stimulated controls. 10 μL of concanavalin A (50×the final concentration) at 10 μg/mL was added to each well with the exception of the non-stimulated control wells. Cells were incubated at 37° C. for 48 hours. Conditioned media is then assessed by ELISA for the quantity of IL-2, […], TNFα and IL-10 present.
# [3] = system: IL-2 production in concanavalin A stimulated primary human CD4+ T-cells; assay: IL-2 production (Th1 profile) in concanavalin A stimulated primary human CD4+ T-cells; format: cell-based; conditions: for IC50: Homo sapiens, T-cell, 10 μg/mL Concanavalin A, 48 hours, X marks this range; for Th1 versus Th2 cytokine profile: conA stimulated CD4+ selected cells
# Excerpt: The assay on the primary human T-cells involves their activation by concanavalin A (conA); (Sigma, Catalogue No. C 5275), followed by ELISA detection for cytokines for either profile. In the case of Th1-profiles, IL-2 and INF-γ are used as benchmarks while IL-10 is the indicator for a Th2-profile. Biologically, these indicators are useful in that IL-2 is the major T-cell mitogen while IL-10 represents a powerful yet selective immunosuppressive agent.
# as §1, §2, §3, §4, §5
# Tables 5A, 5B and 5C represent a synopsis of data across individuals with respects to the potency of compounds of the invention in their ability to inhibit cytokines that are likely to promote or depress a Th1 or Th2 response. […]
# [4] = system: High Affinity Rolipram Binding Site of PDE4 in Mouse Brain; assay: Displacement of [3H]-rolipram from its high affinity binding site (HARBS); conditions: for PDE4:HARBS: ratio of IC50 for PDE4 catalytic activity to concentration displacing 50% of rolipram from HARBS
# [5] = read-out: IC50 RANGE (μM) <1, ROS production, X marks this range
# [6] = ROS production, X marks this range, read-out: IC50 RANGE (μM) 1-10
# [7] = read-out: TNF-alpha IC50 RANGE (μM) 2.0-20
# [8] = read-out: IL-2 IC50 RANGE (μM) 0.02-0.2
# [9] = read-out: IL-2 IC50 RANGE (μM) 0.2-2.0
# [10] = read-out: TNF-alpha IC50 RANGE (μM) <2
SMILES,"IC50 [1, 5] [µM]","IC50 [1, 6] [µM]","IC50 [2, 7] [µM]",PDE4:HARBS [4],"IC50 [3, 9] [µM]","IC50 [2, 10] [µM]",further results
COc1cc(C[C@@H]2CC(c3ccc(OC)c(OC)c3)COC2=O)ccc1O (mixture of isomers) [Compound 12],< 1,–,–,–,–,–,–
COc1cc(C[C@@H]2C[C@@H](c3ccc(OC)c(OC)c3)COC2=O)ccc1O [Compound 30],–,1 to 10,2 to 20,<1,–,–,"IC50 [3, 8]: 0.02 to 0.2 µM; Th1 versus Th2 cytokine profile [3]: selective inhibition of a Th1 profile"
COc1ccc([C@@H]2CCC(=O)OC2)cc1OC1CCCC1 [Compound 41],< 1,–,–,>1,–,–,–
COc1cc(CC2C[C@@H](c3ccc(OC)c(OC4CCCC4)c3)COC2=O)ccc1O (stereo partly shown) [Compound 43],< 1,–,2 to 20,>1,0.2 to 2,–,ratio of IC50's for PDE4catalytic to PDE4HARBS [4]: 1.04
COc1ccc([C@H]2CNC(=O)C(Cc3ccc(OCc4ccccc4)c(OC)c3)C2)cc1OC (stereo partly shown) [Compound 54],–,1 to 10,–,>1,–,< 2,"IC50 [3, 8]: 0.02 to 0.2 µM; Th1 versus Th2 cytokine profile [3]: selective inhibition of a Th1 profile"
COc1cc(CC2C[C@@H](c3ccc(OC)c(OC)c3)CNC2=O)ccc1O (stereo partly shown) [Compound 55],–,1 to 10,2 to 20,>1,0.2 to 2,–,–
COc1cc(CC2C[C@@H](c3ccc(OC)c(OC4CCCC4)c3)CNC2=O)ccc1O (stereo partly shown) [Compound 62],–,–,–,>1,0.2 to 2,< 2,"IC50 ([1]; ROS production, X marks this range, read-out: IC50 RANGE (μM) 10-100): 10 to 100 µM"
"COc1ccc(C2CNC(=O)C2)cc1OC1CCCC1 (stereo not shown) [Rolipram, reference compound]",–,–,–,–,–,< 2,IC50 ([3]; read-out: IL-2 IC50 RANGE (μM) 2.0-20): 2 to 20 µM
